This is an account of results in BindingDB's records for patent US12065430 (Taiho Pharmaceutical, 2024).

Broadly, the IC50 is the concentration that inhibits the measured activity by half. Lower therefore signals inhibition by little substance.

The target in the assay is T1, Son of sevenless homolog 1 [564-1049]/GTPase KRas [G12C] (UniProt P01116+Q07889, G12C).
T1 construct: 564-1049
T1 sequence (P01116 whole entry G12C): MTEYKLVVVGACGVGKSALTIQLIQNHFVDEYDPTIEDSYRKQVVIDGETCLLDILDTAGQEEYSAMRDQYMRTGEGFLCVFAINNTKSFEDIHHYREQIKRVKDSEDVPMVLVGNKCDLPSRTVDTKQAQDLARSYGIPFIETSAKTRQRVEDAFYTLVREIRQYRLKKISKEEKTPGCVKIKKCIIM
T1 sequence (Q07889 564-1049): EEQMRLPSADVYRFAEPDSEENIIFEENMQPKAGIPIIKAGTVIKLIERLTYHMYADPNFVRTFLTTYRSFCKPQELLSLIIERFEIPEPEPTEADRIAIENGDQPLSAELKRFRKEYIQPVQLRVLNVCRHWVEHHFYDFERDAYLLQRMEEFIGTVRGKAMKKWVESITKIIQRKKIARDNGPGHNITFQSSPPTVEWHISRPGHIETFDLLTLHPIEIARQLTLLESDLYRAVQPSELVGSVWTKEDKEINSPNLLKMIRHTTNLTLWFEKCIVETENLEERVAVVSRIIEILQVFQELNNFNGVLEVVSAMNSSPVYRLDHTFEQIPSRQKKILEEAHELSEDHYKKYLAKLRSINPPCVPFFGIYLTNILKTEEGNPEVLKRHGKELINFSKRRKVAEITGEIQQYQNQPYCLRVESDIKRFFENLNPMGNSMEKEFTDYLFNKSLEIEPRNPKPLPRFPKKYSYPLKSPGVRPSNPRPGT
The assay can be described thus: Evaluation of Inhibitory Activity of Compounds on KRAS G12C Nucleotide (GDP-GTP) Exchange Reaction. As to the method:
The inhibitory activity of compounds on exchange reaction of GDP into GppNHp in Bodipy (trademark) FL-bound KRAS G12C was examined by fluorescence measurement using human recombinant KRAS G12C and SOS1 proteins.For the preparation of KRAS G12C to which Bodipy FL GDP was bound, first, […] KRAS G12C (amino acid region: 1-169) and 1 mM Bodipy FL GDP (Invitrogen, G22360) were incubated for 1 hour in a buffer (20 mM Tris-HCl (pH 7.5), 50 mM NaCl, 1 mM DTT) in ice in the presence of 2.5 mM EDTA. Thereafter, MgCl2 with a final concentration of 10 mM was added, and the mixture was incubated at room temperature for 30 minutes. The protein was allowed to pass through a NAP-5 column to remove free nucleotides and was used for compound evaluation.For the measurement of the inhibitory activity of compounds on nucleotide exchange reaction, first, the compound of the present invention was diluted stepwise with dimethyl sulfoxide (DMSO). Subsequently, a solution of the gradually diluted compound of the present invention in DMSO (the final concentration of DMSO: 5%) and KRAS G12C (25 nM) bound to Bodipy FL GDP were added to a reaction buffer (20 mM Tris-HCl (pH 7.5), 100 mM NaCl, 1 mM MgCl2, 2 mM DTT, 0.1% Tween20), followed by preincubation at 25° C. for 4 hours. Thereafter, Son of Sevenless Homolog 1 (SOS1, amino acid region: 564-1049) and GppNHp (GMPPNP, Jena Bioscience GmbH, NU-401-50) were added such that their final concentration was 100 nM and 1 μM respectively, followed by reaction for 30 minutes. The change in fluorescence intensity of Bodipy FL (excitation wavelength: 485 nm, fluorescence wavelength: 520 nm) immediately after the start of reaction and after 30 minutes from the start of reaction was standardized. The signal value for only DMSO was determined to be 0% inhibition, and the signal value for no addition of GppNHp was determined to be 100% inhibition. The compound concentration at which 50% inhibition is achieved was determined to be IC50 (nM), and was calculated.
`C=CC(=O)N1C[C@@H](CF)[C@@H](NC(=O)c2c(C)nc(CNc3n[nH]c4cc(Cl)c(C(C)(C)C)cc34)n2C)C1` [US12065430, Example 66] returned an IC50 of 20 nM.
The figure for `C=CC(=O)N1C[C@@H](COC)[C@@H](NC(=O)c2c(C)nc(CNc3n[nH]c4cc(Cl)c(C(C)(C)C)cc34)n2C)C1` [US12065430, Example 67] is 24 nM.
With `C=CC(=O)N1C[C@@H](CN(C)C)[C@@H](NC(=O)c2c(C)nc(CNc3n[nH]c4cc(Cl)c(C(C)(C)C)cc34)n2C)C1` [US12065430, Example 68], the half-inhibitory concentration (IC50) was 99 nM. Compared with the last compound, the IC50 is about 4.1-fold higher.
For the compound `C=CC(=O)N1CC[C@@H](NC(=O)c2c(Cl)nc(CNc3n[nH]c4cc(Cl)c(C(C)(C)C)cc34)n2C)C1` [US12065430, Example 73], the IC50 was found to be 52 nM.
Under `C=CC(=O)N1C[C@@H](C)[C@@H](NC(=O)c2c(F)nc(CNc3n[nH]c4cc(Cl)c(C(C)(C)C)cc34)n2C)C1` [US12065430, Example 74] stands 36 nM.
Take `C=CC(=O)N1C[C@H](NC(=O)c2c(F)nc(CNc3n[nH]c4cc(Cl)c(C(C)(C)C)cc34)n2C)[C@@H](F)C1` [US12065430, Example 75]: the IC50 was determined as 16 nM.
Under `C=CC(=O)N1C[C@H](NC(=O)c2c(Cl)nc(CNc3n[nH]c4cc(Cl)c(C(C)(C)C)cc34)n2C)[C@@H](F)C1` [US12065430, Example 76] stands 13 nM; under `C=CC(=O)N1CC[C@@H](N(C)C(=O)c2cnc(CNc3n[nH]c4cc(Cl)c(C(C)(C)C)cc34)n2C)C1` [US12065430, Example 77], 142 nM.
For `C=CC(=O)N1C[C@@H](C)[C@@H](NC(=O)c2c(Cl)nc(CNc3n[nH]c4cc(Cl)c(C(C)(C)C)cc34)n2C)C1` [US12065430, Example 78], inhibition was half-maximal at 20 nM (IC50).
Consider `C/C=C/C(=O)N1CC(NC(=O)c2c(C)nc(CNc3n[nH]c4cc(Cl)c(C(C)(C)C)cc34)n2C(C)C)C1` [US12065430, Example 81], for which the 50% inhibitory concentration (IC50) is 2630 nM.
In turn, `CC#CC(=O)N1CC(NC(=O)c2c(C)nc(CNc3n[nH]c4cc(Cl)c(C(C)(C)C)cc34)n2C(C)C)C1` [US12065430, Example 82] yielded a 50% inhibitory concentration (IC50) of 209 nM.
With `Cc1nc(CNc2n[nH]c3cc(Cl)c(C(C)(C)C)cc23)n(C(C)C)c1C(=O)NC1CN(C(=O)/C=C\Cl)C1` [US12065430, Example 83], half-maximal inhibition (IC50) required 2350 nM.
For the compound `CC(C)n1c(CNc2n[nH]c3cc(Cl)c(C(C)(C)C)cc23)nc(C(F)F)c1C(=O)NC1CN(C(=O)/C=C/CN(C)C)C1` [US12065430, Example 84], 63 nM corresponded to half-maximal inhibition (IC50). Compared with the last compound, the IC50 is about 37-fold lower.
Under `C=CS(=O)(=O)N1CC(NC(=O)c2c(C)nc(CNc3n[nH]c4cc(Cl)c(C(C)(C)C)cc34)n2C(C)C)C1` [US12065430, Example 86] stands 58 nM; under `C=CC(=O)N1CC(NC(=O)c2c(Cl)nc(CNc3n[nH]c4cc(Cl)c(C(C)(C)C)cc34)n2CCCC)C1` [US12065430, Example 87], 14 nM; under `C=CC(=O)N1CC(NC(=O)c2c(Cl)nc(CNc3n[nH]c4cc(Cl)c(C(C)(C)C)cc34)n2CC(C)C)C1` [US12065430, Example 89], 7 nM.
`C=CC(=O)N1CC(NC(=O)c2c(Cl)nc(CNc3n[nH]c4cc(Cl)c(C(C)(C)C)cc34)n2CCOC)C1` [US12065430, Example 90] came in with a half-maximal inhibitory concentration (IC50) of 6 nM.
As for `C=CC(=O)N1CC(NC(=O)c2c(C(F)F)nc(CNc3n[nH]c4cc(Cl)c(C(C)(C)C)cc34)n2C2CCN(C)C2)C1` (stereo unspecified) [US12065430, Example 91], the IC50 came out at 7 nM.
In turn, `C=CC(=O)N1CC(NC(=O)c2c(C(F)F)nc(CNc3n[nH]c4cc(Cl)c(C(C)(C)C)cc34)n2C2CCN(CC)C2)C1` (stereo unspecified) [US12065430, Example 92] had an IC50 of 10 nM. The IC50 values of the last two compounds are within 1.5-fold of each other.
Turning to `C=CC(=O)N1CC(NC(=O)c2c(C(F)F)nc(CNc3n[nH]c4cc(Cl)c(C(C)(C)C)cc34)n2C2CCN(C(C)C)C2)C1` (stereo unspecified) [US12065430, Example 93], 6 nM corresponded to half-maximal inhibition (IC50).
`C=CC(=O)N1CC(NC(=O)c2c(Cl)nc(CNc3n[nH]c4cc(Cl)c(C(C)(C)C)cc34)n2-c2ccccn2)C1` [US12065430, Example 94] had a concentration for half-maximal inhibition (IC50) of 118 nM. Compared with the last compound, the IC50 is about 20-fold higher.
